Data reported in patent US20240190880A1 (THE REGENTS OF THE UNIVERSITY OF MICHIGAN, priority 2021, published 2024).

Target: T1, ER (Homo sapiens, UniProt P03372)
T1 construct: host or cells: T47D and MCF7 human breast cancer cells
T1 sequence (P03372 1-595): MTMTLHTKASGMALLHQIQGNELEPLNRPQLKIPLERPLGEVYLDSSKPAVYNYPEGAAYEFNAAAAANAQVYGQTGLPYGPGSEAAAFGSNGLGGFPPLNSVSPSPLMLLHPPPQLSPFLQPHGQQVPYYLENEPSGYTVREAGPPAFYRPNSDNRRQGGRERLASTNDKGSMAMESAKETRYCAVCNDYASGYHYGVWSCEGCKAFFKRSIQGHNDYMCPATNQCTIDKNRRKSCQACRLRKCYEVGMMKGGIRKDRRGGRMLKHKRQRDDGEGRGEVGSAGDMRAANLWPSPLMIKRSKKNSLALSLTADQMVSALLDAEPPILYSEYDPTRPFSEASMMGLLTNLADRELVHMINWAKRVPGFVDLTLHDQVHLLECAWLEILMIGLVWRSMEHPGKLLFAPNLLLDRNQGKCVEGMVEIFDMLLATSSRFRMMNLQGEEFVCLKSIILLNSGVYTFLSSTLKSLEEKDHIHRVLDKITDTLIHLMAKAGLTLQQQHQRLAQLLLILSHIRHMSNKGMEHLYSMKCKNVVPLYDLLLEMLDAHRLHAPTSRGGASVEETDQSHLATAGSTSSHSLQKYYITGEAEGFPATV
Assay: ER degradation activity, in-cell western blot analysis in T47D cells
Assay type: cell-based
Conditions: 16 hours, Table A does not say which cell line (T47D or MCF7), read-out: Potency (DC50)
How it was run: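 In-cell western, T47D; compounds 16 h, 0.5% DMSO final; anti-rabbit-680/anti-mouse-800 secondaries, 1 h RT, dark; read on CLX imager. ER % vs untreated/DMSO wells (100%).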

DC50 [nM] | Compound
< 10 | C[C@@H]1Cc2c([nH]c3ccccc23)[C@@H](c2c(F)cc(N3CCC(CN4CCC(C(=O)N5Cc6cc7c(cc6C5)C(=O)N(C5CCC(=O)NC5=O)C7=O)CC4)C3)cc2F)N1CC(F)F (stereo partly drawn) [E 57, 6-(1-((1-(4-((1R,3R)-2-(2,2-difluoroethyl)-3-methyl-2,3,4,9-tetrahydro-1H-pyrido[3,4-b]indol-1-yl)-3,5-difluorophenyl)pyrrolidin-3-yl)methyl)piperidine-4-carbonyl)-2-(2,6-dioxopiperidin-3-yl)-6,7-dihydropyrrolo[3,4-f]isoindole-1,3(2H,5H)-dione]
10 to 100 | C[C@@H]1Cc2c([nH]c3ccccc23)[C@@H](c2c(F)cc(N3CCCC(CN4CCC(C(=O)N5Cc6cc7c(cc6C5)C(=O)N(C5CCC(=O)NC5=O)C7=O)CC4)C3)cc2F)N1CC(F)F (stereo partly drawn) [E 58, 6-(1-((1-(4-((1R,3R)-2-(2,2-difluoroethyl)-3-methyl-2,3,4,9-tetrahydro-1H-pyrido[3,4-b]indol-1-yl)-3,5-difluorophenyl)piperidin-3-yl)methyl)piperidine-4-carbonyl)-2-(2,6-dioxopiperidin-3-yl)-6,7-dihydropyrrolo[3,4-f]isoindole-1,3(2H,5H)-dione]
10 to 100 | C[C@@H]1Cc2c([nH]c3ccccc23)[C@@H](c2c(F)cc(N3CCCC(CN4CCC(N5Cc6cc7c(cc6C5)C(=O)N(C5CCC(=O)NC5=O)C7=O)CC4)C3)cc2F)N1CC(F)F (stereo partly drawn) [E 59, 6-(1-((1-(4-((1R,3R)-2-(2,2-difluoroethyl)-3-methyl-2,3,4,9-tetrahydro-1H-pyrido[3,4-b]indol-1-yl)-3,5-difluorophenyl)piperidin-3-yl)methyl)piperidin-4-yl)-2-(2,6-dioxopiperidin-3-yl)-6,7-dihydropyrrolo[3,4-f]isoindole-1,3(2H,5H)-dione]
> 100 | C[C@@H]1Cc2c([nH]c3ccccc23)[C@@H](c2c(F)cc(N3CC4(CCN4CC(=O)N4Cc5cc6c(cc5C4)C(=O)N(C4CCC(=O)NC4=O)C6=O)C3)cc2F)N1CC(F)F (stereo partly drawn) [E 60, 6-(2-(6-(4-((1R,3R)-2-(2,2-difluoroethyl)-3-methyl-2,3,4,9-tetrahydro-1H-pyrido[3,4-b]indol-1-yl)-3,5-difluorophenyl)-1,6-diazaspiro[3.3]heptan-1-yl)acetyl)-2-(2,6-dioxopiperidin-3-yl)-6,7-dihydropyrrolo[3,4-f]isoindole-1,3(2H,5H)-dione]
> 100 | C[C@@H]1Cc2c([nH]c3ccccc23)[C@@H](c2c(F)cc(N3CC4(CCN4CC(=O)N4Cc5cc6c(cc5C4)C(=O)N(C4CCC(=O)NC4=O)C6)C3)cc2F)N1CC(F)F (stereo partly drawn) [E 61, 3-(6-(2-(6-(4-((1R,3R)-2-(2,2-difluoroethyl)-3-methyl-2,3,4,9-tetrahydro-1H-pyrido[3,4-b]indol-1-yl)-3,5-difluorophenyl)-1,6-diazaspiro[3.3]heptan-1-yl)acetyl)-1-oxo-3,5,6,7-tetrahydropyrrolo[3,4-f]isoindol-2(1H)-yl)piperidine-2,6-dione]
< 10 | C[C@@H]1Cc2c([nH]c3ccccc23)[C@@H](c2c(F)cc(N3CCC4(CCN(CC(=O)N5Cc6cc7c(cc6C5)C(=O)N(C5CCC(=O)NC5=O)C7=O)C4)CC3)cc2F)N1CC(F)F (stereo partly drawn) [E 62, 6-(2-(8-(4-((1R,3R)-2-(2,2-difluoroethyl)-3-methyl-2,3,4,9-tetrahydro-1H-pyrido[3,4-b]indol-1-yl)-3,5-difluorophenyl)-2,8-diazaspiro[4.5]decan-2-yl)acetyl)-2-(2,6-dioxopiperidin-3-yl)-6,7-dihydropyrrolo[3,4-f]isoindole-1,3(2H,5H)-dione]
< 10 | C[C@@H]1Cc2c([nH]c3ccccc23)[C@@H](c2c(F)cc(N3CCC4(CCN(CC(=O)N5Cc6cc7c(cc6C5)C(=O)N(C5CCC(=O)NC5=O)C7)C4)CC3)cc2F)N1CC(F)F (stereo partly drawn) [E 63, 3-(6-(2-(8-(4-((1R,3R)-2-(2,2-difluoroethyl)-3-methyl-2,3,4,9-tetrahydro-1H-pyrido[3,4-b]indol-1-yl)-3,5-difluorophenyl)-2,8-diazaspiro[4.5]decan-2-yl)acetyl)-1-oxo-3,5,6,7-tetrahydropyrrolo[3,4-f]isoindol-2(1H)-yl)piperidine-2,6-dione]
< 10 | C[C@@H]1Cc2c([nH]c3ccccc23)[C@@H](c2c(F)cc(N3CCC4(CCN(C(=O)CN5Cc6cc7c(cc6C5)C(=O)N(C5CCC(=O)NC5=O)C7)C4)CC3)cc2F)N1CC(F)F (stereo partly drawn) [E 64, 3-(6-(2-(8-(4-((1R,3R)-2-(2,2-difluoroethyl)-3-methyl-2,3,4,9-tetrahydro-1H-pyrido[3,4-b]indol-1-yl)-3,5-difluorophenyl)-2,8-diazaspiro[4.5]decan-2-yl)-2-oxoethyl)-1-oxo-3,5,6,7-tetrahydropyrrolo[3,4-f]isoindol-2(1H)-yl)piperidine-2,6-dione]
< 10 | C[C@@H]1Cc2c([nH]c3ccccc23)[C@@H](c2c(F)cc(N3CC4(CN(CC(=O)N5Cc6cc7c(cc6C5)C(=O)N(C5CCC(=O)NC5=O)C7)C4)C3)cc2F)N1CC(F)F (stereo partly drawn) [E 65, 3-(6-(2-(6-(4-((1R,3R)-2-(2,2-difluoroethyl)-3-methyl-2,3,4,9-tetrahydro-1H-pyrido[3,4-b]indol-1-yl)-3,5-difluorophenyl)-2,6-diazaspiro[3.3]heptan-2-yl)acetyl)-1-oxo-3,5,6,7-tetrahydropyrrolo[3,4-f]isoindol-2(1H)-yl)piperidine-2,6-dione]
< 10 | C[C@@H]1Cc2c([nH]c3ccccc23)[C@@H](c2c(F)cc(N3CC4(CCN(C(=O)CN5Cc6cc7c(cc6C5)C(=O)N(C5CCC(=O)NC5=O)C7)C4)C3)cc2F)N1CC(F)F (stereo partly drawn) [E 66, 3-(6-(2-(2-(4-((1R,3R)-2-(2,2-difluoroethyl)-3-methyl-2,3,4,9-tetrahydro-1H-pyrido[3,4-b]indol-1-yl)-3,5-difluorophenyl)-2,6-diazaspiro[3.4]octan-6-yl)-2-oxoethyl)-1-oxo-3,5,6,7-tetrahydropyrrolo[3,4-f]isoindol-2(1H)-yl)piperidine-2,6-dione]
10 to 100 | C[C@@H]1Cc2c([nH]c3ccccc23)[C@@H](c2c(F)cc(N3CCCC4(CCN(C(=O)CN5Cc6cc7c(cc6C5)C(=O)N(C5CCC(=O)NC5=O)C7)C4)C3)cc2F)N1CC(F)F (stereo partly drawn) [E 67, 3-(6-(2-(7-(4-((1R,3R)-2-(2,2-difluoroethyl)-3-methyl-2,3,4,9-tetrahydro-1H-pyrido[3,4-b]indol-1-yl)-3,5-difluorophenyl)-2,7-diazaspiro[4.5]decan-2-yl)-2-oxoethyl)-1-oxo-3,5,6,7-tetrahydropyrrolo[3,4-f]isoindol-2(1H)-yl)piperidine-2,6-dione]
10 to 100 | C[C@@H]1Cc2c([nH]c3ccccc23)[C@@H](c2c(F)cc(N3CCC4(CCN(C(=O)CN5Cc6cc7c(cc6C5)C(=O)N(C5CCC(=O)NC5=O)C7)C4)C3)cc2F)N1CC(F)F (stereo partly drawn) [E 68, 3-(6-(2-(7-(4-((1R,3R)-2-(2,2-difluoroethyl)-3-methyl-2,3,4,9-tetrahydro-1H-pyrido[3,4-b]indol-1-yl)-3,5-difluorophenyl)-2,7-diazaspiro[4.4]nonan-2-yl)-2-oxoethyl)-1-oxo-3,5,6,7-tetrahydropyrrolo[3,4-f]isoindol-2(1H)-yl)piperidine-2,6-dione]
> 100 | C[C@@H]1Cc2c([nH]c3ccccc23)[C@@H](c2c(F)cc(N3CC4(CCCN(C(=O)CN5Cc6cc7c(cc6C5)C(=O)N(C5CCC(=O)NC5=O)C7)C4)C3)cc2F)N1CC(F)F (stereo partly shown) [E 69]
